The record followed here is patent publication US10913727B2, “Modulators of the integrated stress pathway” (Calico Life Sciences LLC, priority 2016, dated 2021).

The subject of the experiment is HEK293T cells carrying the ATF4 luciferase reporter. As to the kind of experiment: ATF4-Luc assay, in vitro model of Vanishing Cell White Matter Disease (VWMD). It counts as cell-based. To be noted: Homo sapiens, HEK-293T, 1 μg/mL tunicamycin, 7 hours, One Glo luminescence. The procedure, abridged:
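Compound at 200 nM and tunicamycin at 1 μg/mL were given together for 7 h to HEK293T cells stably transduced with an ATF4 5′-UTR-driven firefly luciferase reporter. Read-out by luminescence, reported as EC50.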
What is called EC50 is the concentration giving half of the maximal effect. Regarding `O=C(COc1ccc(Cl)c(F)c1)NC12CCC(NC(=O)c3cc(-n4ccnc4)ccn3)(CC1)CC2O` (stereo not shown) [Compound 934, N-{4-[2-(4-chloro-3-fluorophenoxy)acetamido]-3-hydroxybicyclo[2.2.2]octan-1-yl}-4-(1H-imidazol-1-yl)pyridine-2-carboxamide], the EC50 lay in the range of 1000 to 2000 nM.

For the compound `O=C(COc1ccc(Cl)c(F)c1)NC12CC(NC(=O)c3ccc(OC(F)(F)F)nc3)(C1)C2` [Compound 132, N-{3-[2-(4-chloro-3-fluorophenoxy)acetamido]bicyclo[1.1.1]pentan-1-yl}-6-(trifluoromethoxy)pyridine-3-carboxamide], the EC50 fell in the range of 50 to 250 nM.

For the compound `O=C(COc1ccc(Cl)c(F)c1)NC12CC(Nc3cnn(CC(F)(F)F)c(=O)c3Cl)(C1)C2` [Compound 416, 2-(4-chloro-3-fluorophenoxy)-N-(3-{[5-chloro-6-oxo-1-(2,2,2-trifluoroethyl)-1,6-dihydropyridazin-4-yl]amino}bicyclo[1.1.1]pentan-1-yl)acetamide], the concentration for a half-maximal effect (EC50) was > 2000 nM.

Take `O=C(COc1ccc(Cl)c(F)c1)NC12CC(NC(=O)c3cccc(Cn4cncn4)c3)(C1)C2` [Compound 892, N-{3-[2-(4-chloro-3-fluorophenoxy)acetamido]bicyclo[1.1.1]pentan-1-yl}-3-[(1H-1,2,4-triazol-1-yl)methyl]benzamide]: the EC50 was 250 to 1000 nM.

For the compound `O=C(COc1ccc(Cl)c(F)c1)NC12CC(NC(=O)c3cocn3)(C1)C2` [Compound 852, N-{3-[2-(4-chloro-3-fluorophenoxy)acetamido]bicyclo[1.1.1]pentan-1-yl}-1,3-oxazole-4-carboxamide], the 50% effective concentration (EC50) lay within 1000 to 2000 nM.

With `O=C(COc1ccc2c(c1)OC(F)(F)O2)NC12CC(NC(=O)c3ccc(OC(F)F)nc3)(C1)C2` [Compound 458, N-(3-{2-[(2,2-difluoro-2H-1,3-benzodioxol-5-yl)oxy]acetamido}bicyclo[1.1.1]pentan-1-yl)-6-(difluoromethoxy)pyridine-3-carboxamide], the 50% effective concentration (EC50) was in the range of 50 to 250 nM.

On to `O=C(COc1ccc(Cl)c(F)c1)NC12CC(NC(=O)c3cc4ccccn4n3)(C1)C2` [Compound 119, N-{3-[2-(4-chloro-3-fluorophenoxy)acetamido]bicyclo[1.1.1]pentan-1-yl}pyrazolo[1,5-a]pyridine-2-carboxamide], for which the EC50 was 250 to 1000 nM.

Regarding `O=C(COc1ccc(Cl)c(F)c1)NC12CC(NC(=O)c3cnc(-c4ccc(C(F)(F)F)nc4)o3)(C1)C2` [Compound 107, N-{3-[2-(4-chloro-3-fluorophenoxy)acetamido]bicyclo[1.1.1]pentan-1-yl}-2-[6-(trifluoromethyl)pyridin-3-yl]-1,3-oxazole-5-carboxamide], the 50% effective concentration (EC50) is < 50 nM.

`Cc1cnc(C(=O)NC23CCC(NC(=O)COc4ccc(Cl)c(Cl)c4)(CC2)[C@@H](O)C3)cn1` [Compound 735, N-{(3S)-4-[2-(3,4-dichlorophenoxy)acetamido]-3-hydroxybicyclo[2.2.2]octan-1-yl}-5-methylpyrazine-2-carboxamide]: the concentration for a half-maximal effect (EC50) was < 50 nM.

As to `Cc1cc(C(=O)NC23CC(NC(=O)COc4ccc(Cl)c(Cl)c4)(C2)C3)n(CC(C)(C)O)n1` [Compound 460, N-{3-[2-(3,4-dichlorophenoxy)acetamido]bicyclo[1.1.1]pentan-1-yl}-1-(2-hydroxy-2-methylpropyl)-3-methyl-1H-pyrazole-5-carboxamide], the half-maximal effective concentration (EC50) is > 2000 nM.

Consider `O=C(COc1ccc(Cl)c(F)c1)NC12CCC(NC(=O)c3cccc(CO)n3)(CC1)CC2O` (stereo not shown) [Compound 945, N-{4-[2-(4-chloro-3-fluorophenoxy)acetamido]-3-hydroxybicyclo[2.2.2]octan-1-yl}-6-(hydroxymethyl)pyridine-2-carboxamide], for which the EC50 is > 2000 nM.

For `O=C(COc1ccc(Cl)c(F)c1)NC12CC(NC(=O)c3nnc4n3CCCC4)(C1)C2` [Compound 844, N-{3-[2-(4-chloro-3-fluorophenoxy)acetamido]bicyclo[1.1.1]pentan-1-yl}-5,6,7,8-tetrahydro[1,2,4]triazolo[4,3-a]pyridine-3-carboxamide], the 50% effective concentration (EC50) is > 2000 nM.

Turning to `Cc1cc(C(=O)NC23CC(NC(=O)COc4ccc(Cl)c(Cl)c4)(C2)C3)n(C)n1` [Compound 441, N-{3-[2-(3,4-dichlorophenoxy)acetamido]bicyclo[1.1.1]pentan-1-yl}-1,3-dimethyl-1H-pyrazole-5-carboxamide], the EC50 is < 50 nM.

Regarding `CN(C)Cc1ccccc1C(=O)NC12CC(NC(=O)COc3ccc(Cl)c(F)c3)(C1)C2` [Compound 542, N-{3-[2-(4-chloro-3-fluorophenoxy)acetamido]bicyclo[1.1.1]pentan-1-yl}-2-[(dimethylamino)methyl]benzamide], the EC50 was > 2000 nM.

On to `COc1ccnc(C(=O)NC23CC(NC(=O)COc4ccc(Cl)c(F)c4)(C2)C3)c1` [Compound 177, N-{3-[2-(4-chloro-3-fluorophenoxy)acetamido]bicyclo[1.1.1]pentan-1-yl}-4-methoxypyridine-2-carboxamide], for which the EC50 fell in the range of 250 to 1000 nM.

Turning to `COc1cc(C(=O)NC23CC(NC(=O)COc4ccc(Cl)c(F)c4)(C2)C3)c(OC)nn1` [Compound 788, N-{3-[2-(4-chloro-3-fluorophenoxy)acetamido]bicyclo[1.1.1]pentan-1-yl}-3,6-dimethoxypyridazine-4-carboxamide], the half-maximal effective concentration (EC50) is > 2000 nM.

Consider `O=C(COc1ccc2c(c1)OC(F)(F)O2)NC12CC(NC(=O)c3ccc(OC(F)(F)F)cn3)(C1)C2` [Compound 378, N-(3-{2-[(2,2-difluoro-2H-1,3-benzodioxol-5-yl)oxy]acetamido}bicyclo[1.1.1]pentan-1-yl)-5-(trifluoromethoxy)pyridine-2-carboxamide], for which the EC50 was < 50 nM.

For `O=C(COc1ccc(Cl)c(F)c1)NC12CC(NC(=O)c3ccnc(C(=O)NCCO)c3)(C1)C2` [Compound 288, N^4-{3-[2-(4-chloro-3-fluorophenoxy)acetamido]bicyclo[1.1.1]pentan-1-yl}-N^2-(2-hydroxyethyl)pyridine-2,4-dicarboxamide], the EC50 was > 2000 nM.

In the case of `Cc1cc(C(=O)NC23CC(NC(=O)COc4ccc5c(c4)OC(F)(F)O5)(C2)C3)on1` [Compound 377, N-(3-{2-[(2,2-difluoro-2H-1,3-benzodioxol-5-yl)oxy]acetamido}bicyclo[1.1.1]pentan-1-yl)-3-methyl-1,2-oxazole-5-carboxamide], the concentration giving a half-maximal response (EC50) was in the range of 250 to 1000 nM.

Turning to `O=C(COc1ccc(Cl)c(F)c1)NC12CCC(NC(=O)c3ccc(OC(F)(F)F)cc3)(CC1)C(O)C2` (stereo not shown) [Compound 225, N-{4-[2-(4-chloro-3-fluorophenoxy)acetamido]-2-hydroxybicyclo[2.2.2]octan-1-yl}-4-(trifluoromethoxy)benzamide], the EC50 was in the range of 50 to 250 nM.

For `O=C(COc1ccc(Cl)c(F)c1)NC12CC(NC(=O)c3cnn(C(F)F)c3)(C1)C2` [Compound 724, N-{3-[2-(4-chloro-3-fluorophenoxy)acetamido]bicyclo[1.1.1]pentan-1-yl}-1-(difluoromethyl)-1H-pyrazole-4-carboxamide], the concentration for a half-maximal effect (EC50) was in the range of 250 to 1000 nM.

For `Cc1cnc(C(=O)NC23CC(NC(=O)COc4ccc(Cl)c(Cl)c4)(C2)C3)cn1` [Compound 131, N-{3-[2-(3,4-dichlorophenoxy)acetamido]bicyclo[1.1.1]pentan-1-yl}-5-methylpyrazine-2-carboxamide], the EC50 was 50 to 250 nM.

In the case of `CCc1ccnc(C(=O)NC23CC(NC(=O)COc4ccc(Cl)c(Cl)c4)(C2)C3)c1` [Compound 696, N-{3-[2-(3,4-dichlorophenoxy)acetamido]bicyclo[1.1.1]pentan-1-yl}-4-ethylpyridine-2-carboxamide], the EC50 was in the range of 50 to 250 nM.

`Cc1cc(C(=O)NC23CC(NC(=O)COc4ccc(Cl)c(F)c4)(C2)C3)cnc1C` [Compound 856, N-{3-[2-(4-chloro-3-fluorophenoxy)acetamido]bicyclo[1.1.1]pentan-1-yl}-5,6-dimethylpyridine-3-carboxamide]: the EC50 lay in the range of 250 to 1000 nM.

As for `CCc1cc(C(=O)NC23CCC(NC(=O)COc4ccc(Cl)c(F)c4)(CC2)C(O)C3)on1` (stereo not shown) [Compound 515, N-{4-[2-(4-chloro-3-fluorophenoxy)acetamido]-3-hydroxybicyclo[2.2.2]octan-1-yl}-3-ethyl-1,2-oxazole-5-carboxamide], the EC50 was < 50 nM.

In the case of `COCc1ccccc1C(=O)NC12CC(NC(=O)COc3ccc(Cl)c(F)c3)(C1)C2` [Compound 550, N-{3-[2-(4-chloro-3-fluorophenoxy)acetamido]bicyclo[1.1.1]pentan-1-yl}-2-(methoxymethyl)benzamide], the concentration for a half-maximal effect (EC50) was 1000 to 2000 nM.

On to `Cn1cc2ccnc(NC34CC(NC(=O)COc5ccc(Cl)c(F)c5)(C3)C4)c2n1` [Compound 493, 2-(4-chloro-3-fluorophenoxy)-N-{3-[(2-methyl-2H-pyrazolo[3,4-c]pyridin-7-yl)amino]bicyclo[1.1.1]pentan-1-yl}acetamide], for which the EC50 lay within 50 to 250 nM.

Take `Cn1c(C(=O)NC23CC(NC(=O)COc4ccc(Cl)c(F)c4)(C2)C3)cc2ccccc21` [Compound 648, N-{3-[2-(4-chloro-3-fluorophenoxy)acetamido]bicyclo[1.1.1]pentan-1-yl}-1-methyl-1H-indole-2-carboxamide]: the half-maximal effective concentration (EC50) was 50 to 250 nM.

Take `Cc1cc2c(NC34CC(NC(=O)COc5cccc(OC(F)(F)F)c5)(C3)C4)nccn2n1` [Compound 424, N-{3-[(2-methylpyrazolo[1,5-a]pyrazin-4-yl)amino]bicyclo[1.1.1]pentan-1-yl}-2-[3-(trifluoromethoxy)phenoxy]acetamide]: the EC50 lay in the range of 1000 to 2000 nM.

`O=C(COc1ccc(Cl)c(F)c1)NC12CC(NC(=O)c3ccc(F)cc3F)(C1)C2` [Compound 511, N-{3-[2-(4-chloro-3-fluorophenoxy)acetamido]bicyclo[1.1.1]pentan-1-yl}-2,4-difluorobenzamide]: the concentration giving a half-maximal response (EC50) fell in the range of 250 to 1000 nM.

For the compound `Cn1cc(C(=O)NC23CCC(NC(=O)COc4ccc(Cl)c(F)c4)(CC2)C(O)C3)cn1` (stereo not shown) [Compound 626, N-{4-[2-(4-chloro-3-fluorophenoxy)acetamido]-3-hydroxybicyclo[2.2.2]octan-1-yl}-1-methyl-1H-pyrazole-4-carboxamide], the EC50 fell in the range of 50 to 250 nM.
